In US20110171230A1, “Method of Identifying Agents that Promote Axonal Development” (The Johns Hopkins University, priority 2008, published 2011):

Columns and labels:
[1] = test system: growth cones of Xenopus spinal neurons; assay: Growth cone turning assay in a netrin-1 gradient; format: cell-based; settings: for growth cone turning response in a GPI-1046 gradient: GPI-1046 100 μM in the pipette
Protocol: Growth cone turning assay. Microscopic gradients of netrin-1 (5 μg/ml in the pipette), MAG (150 μg/ml in the pipette) and GPI-1046 (100 μM in the pipette) were produced as previously described (Lohof et al., J Neurosci 12:1253-61, 1992; and Zheng et al., Nature 368:140-4, 1994). […] Xenopus spinal neurons were used 14 to 20 hrs after plating and neurons with the lineage-tracer were identified under fluorescent microscope and used for turning assay at room temperature as previously described (Ming et al., Nature 417:411-8, 2002; Ming et al., Neuron 19:1225-35, 1997; Lohof et al., J Neurosci 12:1253-61, 1992; and Zheng et al., Nature 368:140-4, 1994). GFP^+ hippocampal neurons were used 48-72 hours after plating and individual axon was identified for turning assay at the room temperature. The turning angle was defined by the angle between the original direction of neurite extension and a straight line connecting the positions of the center of the growth cone at the onset and the end of the 30 min period. The rates of neurite extension were calculated based on the net neurite extension during the turning assay. Only those growth cones of isolated neurons with a net neurite extension >5 μm over the 30-min period were included for analysis. Statistical significance was assessed using the Kolmogorov-Smirnov test.

[2] = test system: axonal growth cones of rat hippocampal neurons; assay: Growth cone turning assay in a MAG gradient; format: cell-based; settings: MAG 150 μg/ml in the pipette
Protocol: Primary hippocampal neuronal cultures and transfection. Hippocampal neurons were isolated from postnatal rats (P3-P5) and were cultured on poly-L-lysine coated coverslips as previously described (Song et al., Nature 417:39-44, 2002). These neurons were transfected with the AMAXA transfection system following protocols from the manufacturer. Briefly, hippocampal neurons were isolated and 100 μl of nucleofector solution was added to resuspend the cell pellet. Different expression constructs (1-5 μg), GFP, FKBP52-FD67DV, TRPC1-P645A or a combination of TRPC1-P645A and FKBP52-WT, were added to the cell suspension and then transferred to cuvettes for electroporation. The cells were cultured in DMEM with 10% fetal bovine serum for 24 hrs before changing to serum-free neurobasal medium (Song et al., Nature 417:39-44, 2002). Growth cone turning assay. Microscopic gradients of netrin-1 (5 μg/ml in the pipette), MAG (150 μg/ml in the pipette) and GPI-1046 (100 μM in the pipette) were produced as previously described (Lohof et al., J Neurosci 12:1253-61, 1992; and Zheng et al., Nature 368:140-4, 1994). […] The rates of neurite extension were calculated based on the net neurite extension during the turning assay. […] Statistical significance was assessed using the Kolmogorov-Smirnov test.

[3] = test system: FKBPs; settings: Steiner et al., PNAS 94:2019-24, 1997; cited from earlier work
[4] = test system: calcineurin; settings: Steiner et al., PNAS 94:2019-24, 1997; cited from earlier work
[5] = test system: commissural interneuron axons in developing Xenopus embryos; assay: Commissural interneuron axon midline guidance in developing spinal cord (3A10 immunostaining); format: in vivo
Protocol: Xenopus embryo injection and cell culture. Blastomere injections of morpholino oligos or mRNAs encoding TRPC1, FKBP52 or their mutant forms into early stages of Xenopus embryos and culturing of spinal neurons from these injected embryos were performed as previously described (Shim et al., Nat Neurosci 8:730-5, 2005). Specifically, fertilized embryos were injected at the one- or two-cell stage, with a mixture of the morpholino (10 ng/embryo) or mRNA (2-3 ng/embryo), and a lineage tracer. The following DNA constructs were subcloned into the pCS2 vector and used for in vitro transcription with the mMESSAGE mMACHINE SP6 kit (Ambion): Myc-FKBP52-WT, Myc-FKBP52-FD67DV, HA-TRPC1-WT, HA-TRPC1-P645L, HA-TRPC1-P645A, GFP-XTRP C1. A morpholino oligo directed against Xenopus DCC (XDCC-MO) was designed with the following sequence: 5′ […] 3′. Injected embryos at stage 22 were used for cultures of spinal neurons as previous described (Shim et al., Nat Neurosci 8:730-5, 2005).
Whole-mount immunocytochemistry and confocal imaging. Embryos at stage 23-28 were fixed and processed for immunocytochemistry as previously described (Shim et al., Nat Neurosci 8:730-5, 2005; and Gomez et al., Nature 397:350-5, 1999). […] Statistical significance was assessed using the Bootstrap test and accepted if p <0.01.

[6] = test system: growth cones of Xenopus spinal neurons; assay: Ca2+ imaging of growth cones of cultured spinal neurons (netrin-1-induced Ca2+ rise); format: cell-based
Protocol: Ca^2+ imaging of cultured spinal neurons. Ca^2+ imaging of growth cones of Xenopus spinal neurons was carried out as previously described (Ming et al., Nature 417:411-8, 2002; and Ming et al., Neuron 19:1225-35, 1997). Specifically, isolated Xenopus spinal neurons were loaded with Fluo-4 AM (2 μM, Molecular Probes) in the culture media without serum for 30 min at room temperature, and rinsed with the media for growth cone turning assay. Ca^2+ imaging was performed using a Zeiss 510 META system equipped with a 20× objective (NA 0.8). Excitation was at 488 nm by argon laser and the emitted fluorescence was collected at […]. Fluorescence and bright-field images were simultaneously acquired at every 30 seconds with a frame scan. The fluorescence intensity of each time point was measured over a fixed rectangular region of interest that covers the entire growth cone and normalized to the average fluorescence intensity that was measured during a 5 min baseline period (prior to netrin-1 application).

[7] = test system: TRPC1 binding to GST-Homer; assay: GST-Homer pull-down of TRPC1 from lysates of treated HEK293 cells; format: cell-based, human; settings: HEK293 cells transfected with HA-TRPC1 and FKBP52, GPI-1046 1 nM, 100 nM, 500 nM, 1 μM for 30 min
Protocol: GST pull-down, Co-IP and immunocytochemistry. Protein binding assays were done as previously described (Yuan et al., Cell 114:777-89, 2003). Transfected cells were harvested and lysed using 500 μl of binding buffer (1×PBS buffer containing 1 mM NaVO3, 10 mM NaPyrophosphate, 50 mM NaF [pH 7.4], and 1% Triton X-100). The cell extracts were sonicated, and insoluble material was spun down at 30,000 g for 20 min. For GST pull-down, GST-H3 EVH was expressed in BL21 bacterial cells by growing a 400 ml culture at 37 C until […] was 0.4-0.6. Cells were induced with […] IPTG for an additional hour, harvested, lysed in […] of 1% Triton X-100 in 1×PBS+[…] PMSF, sonicated 3×10 strokes, and spun down at 12,000 g for 5 min. The supernatant was mixed 1:1 with a slurry of GST-agarose beads (Sigma) for 30 min at 4 C. Beads were washed 2 times with 1% Triton X-100 in 1×PBS and 2 times with 1×PBS. 50 μl of 1:1 slurry of GST-H3 EVH beads were used per 100 μl cell extract and rocked for 2 hr at 4° C. For co-IP experiments, 1 μg of purified antibody or 2 μl of crude antiserum was added to 100 μl of cell extract and incubated for 1 hr at 4° C. Then, 1:1 slurry of protein A or G SEPHAROSE 4B beads were added to the antibody-extract mix and incubated for an additional hour at 4° C. […]

Row | Molecule | growth cone turning response in a GPI-1046 gradient ([1]; uniform netrin-1 10 ng/ml in the bath) | growth cone turning response in a GPI-1046 gradient ([1]; without uniform netrin-1 stimulation) | growth cone turning response in a netrin-1 gradient ([1]; netrin-1 5 μg/ml in the pipette, bath application of 100 nM, 30 min) | MAG-induced growth cone repulsion [2] | inhibition of FKBP isomerase activity [3] | inhibition of calcineurin [4] | commissural interneuron axon midline guidance ([5]; 0.5 μM applied to Xenopus embryos between stage 22-25) | netrin-1-induced Ca2+ rise in growth cones ([6]; Xenopus spinal neurons, Fluo-4, netrin-1 5 ng/ml, GPI-1046 100 nM in bath) | TRPC1 binding to GST-Homer [7] | commissural interneuron axon midline guidance ([5]; morpholino injected at the one-cell stage, stage 25 embryos) | netrin-1-induced Ca2+ rise in growth cones ([6]; neurons from embryos injected with morpholino (10 ng/embryo))
1 | CCC(C)(C)C(=O)C(=O)N1CCC[C@H]1C(=O)OCCCc1cccnc1 [GPI-1046, 3-(3-pyridyl)-1-propyl (2S)-1-(3,3-dimethyl-1,2-dioxopentyl)-2-pyrrolidinecarboxylate] | significant repulsive turning responses | no bias in the direction of growth cone extension | blocked netrin-1-induced attraction | abolished MAG-induced repulsion | inhibits their isomerase activity | does not inhibit calcineurin | significant guidance defects | abolished netrin-1-induced Ca^2+ rise | increased TRPC1 binding to GST-Homer |  | 
2 | XDCC-MO: morpholino oligo directed against Xenopus DCC, 5′ CCAAGACAATTCTCCATATTTCAGC 3′ (all phosphorodiamidate morpholino (PMO)) |  |  |  |  |  |  |  |  |  | failed to reach the midline | abolished netrin-1-induced Ca^2+ rise
